Reference: patent US10420741B2, “Megalin antagonist” (EA Pharma Co., Ltd., priority 2014, dated 2019)
Entries after “also recorded” stand apart in the source; their conditions may differ.

Key:
megalin [1] = target: T1, megalin (Rattus norvegicus, UniProt P98158)
Description: Next, detailed description will be given of the present invention through the illustration of examples, and the like; however, the present invention is not limited thereto. In the following Examples and the like, purified megalin from rat kidneys according to the method described in NPL 5 was used as the megalin, cilastatin sodium (produced by Sigma-Aldrich Co. LLC.) was used as the cilastatin, colistin sulfate (produced by Sigma-Aldrich Co. LLC.) was used as the colistin, gentamicin produced by Sigma-Aldrich Co. LLC. was used as the gentamicin, vancomycin produced by Sigma-Aldrich Co. LLC. was used as the vancomycin, tenofovir produced by Sigma-Aldrich Co. LLC. was used as the tenofovir, and cisplatin produced by Bristol-Myers Co., Ltd., was used as the cisplatin.
The antagonism effect with respect to the binding of colistin to megalin due to cilastatin was investigated using the QCM method.
As a control, measurement and analysis were carried out in the same manner except that cilastatin was not injected (cilastatin injection amount: 0 μg).
The antagonistic action of cilastatin on the binding of gentamicin, vancomycin, cisplatin, and tacrolimus to megalin was investigated using the QCM method.
Specifically, the measurement and analysis of the frequency were carried out in the same manner as for Example 1 except that the injection amount of cilastatin was set to 4000 μg and 4000 μg of gentamicin was used instead of 240 μg of colistin.
In addition, the measurement and analysis of the frequency were carried out in the same manner as for Example 1 except that the injection amount of cilastatin was set to 5000 μg and 1000 μg of vancomycin was used instead of 240 μg of colistin.
In addition, the measurement and analysis of the frequency were carried out in the same manner as for Example 1 except that the injection amount of cilastatin was set to 10000 μg and 800 μg of cisplatin was used instead of 240 μg of colistin.
Furthermore, the measurement and analysis of the frequency were carried out in the same manner as for Example 1 except that the injection amount of cilastatin was set to 2000 μg and 160 μg of tacrolimus was used instead of 240 μg of colistin.

[2] = test system: kidney tissue (renal tubular cell damage); assay: Nephrotoxicity caused by colistin in C57BL/6 mice, PAS staining and KIM-1 Western blot (Example 4)
Description: Division was made into a group in which 30 mg/kg/day of colistin was subcutaneously administered over four days to 12-week-old male C57BL/6 mice (colistin-administered group: colstin), a group in which 100 mg/kg/day of cilastatin was subcutaneously administered over four days in combination with the subcutaneous administration of 30 mg/kg/day of colistin over four days (colistin+cilastatin combination group: colstin+cilastatin), and, as a control, a group in which a physiological saline solution was subcutaneously administered over four days instead of colistin (saline group: saline), administration was performed in the same manner as the protocol of Reference Example 2 described above, after that, the kidney tissue was taken and histochemical staining (PAS staining) was performed.
Furthermore, using the extracted kidney tissue, the expression of KIM-1, which is a renal tubular cell damage marker, was confirmed by Western blot.

[3] = test system: ATCC25922 strain (E. coli standard strain); assay: Disk method anti-microbial activity (Reference Example 4); assay type: cell-based
Description: An ATCC25922 strain (E. coli standard strain) was cultured for 20 hours using Mueller Hinton agar (MHA) and then the cultured colonies were suspended in saline and adjusted to obtain a solution equivalent to McFarland turbidity standard 0.5. After uniformly coating and drying the microbial solution on the MHA, 10 μg of colistin, cilastatin, and colistin and cilastatin were each added to 6 mm Whatman filter paper discs, disposed at equal intervals on the MHA described above, and cultured for 20 hours at 37° C., and the blocking circles were compared.

[4] = test system: colistin-induced renal impairment; assay: Colistin nephropathy in rats, urinary NAG/CRE (Example 3)
Description: Cilastatin and colistin were co-administered to rats and it was investigated whether or not nephropathy due to colistin was reduced by the megalin ligand antagonistic action of cilastatin.
In evaluating the colistin nephropathy reduction effect due to cilastatin, a colistin solution and a cilastatin solution were prepared as follows.
In the preparation of the colistin solution, first, a colistin stock solution (colistin concentration: 10 mg/mL) was prepared by dissolving 360 mg of colistin sulfate in 30 mL of a saline solution. The colistin stock solution was sterilized by filtration with a 22 mm PVDF membrane and then stored at 4° C. and a colistin administration solution was prepared by diluting the solution with a saline solution before the colistin administration. […]
The concentrations of urinary β-D-N-acetyl-glucosaminidase (NAG) and creatinine (CRE) in the recovered urine were each measured using a measurement kit (product name: CREP 2 and BUNK, both were measured by Roche Diagnostics Co., Ltd.) using a discrete method automatic clinical chemistry analyzer (product name: COBAS INTEGRA 400 plus, manufactured by Roche Diagnostics Co., Ltd.), and the urinary NAG/CRE values of each test group were calculated.

[5] = test system: nephrotoxicity of cisplatin; conditions: rats, reported in PTL 2; cited from earlier work
megalin [6] = target: T1, megalin; assay: QCM method: binding ability to immobilized megalin (Reference Example 1); set-up: purified megalin from rat kidneys according to the method described in NPL 5 was used as the megalin; from tissue; host or cells: rat kidney; conditions: megalin protein immobilized crystal, colistin 240 μg, gentamicin 4000 μg, vancomycin 1600 μg, cisplatin 400 μg, tenofovir 1200 μg
Description: The binding ability of colistin, gentamicin, vancomycin, cisplatin, and tenofovir with respect to megalin was analyzed using the quartz crystal microbalance method (QCM method).
Regarding the immobilization of megalin protein using the Immobilization Kit for AFFINIX (registered trademark) (manufactured by Initium), according to the protocol recommended in the kit, a megalin protein solution adjusted to 12 to 14 μg/mL using Buffer A included in the kit was immobilized by being placed on the crystal installed in the holder.
In more detail, 8 μL of each drug solution was injected to the megalin protein-immobilized crystal placed in the surface of water containing 8 mL of buffer, and the frequency was measured. As a control, measurement was also performed in the same manner with respect to a crystal where the megalin protein was not immobilized. The measurement data was analyzed using dedicated analysis software AQUA (produced by Initium).

proximal tubular cells = assay: Renal tubular cell damage by colistin in kidney specific mosaic-type megalin knockout mice (Reference Examples 2 and 3); assay type: in vivo, mice (apoE cre/megalin loxP)
Description: Renal tubular cell damage caused when colistin was administered to megalin mosaic-type knockout mice was analyzed.
First, 12-week-old kidney specific mosaic-type megalin knockout mice (apoE cre/megalin loxP) were used in the experiments (in these mice, genes expressing megalin in about 60% of proximal tubular cells were knocked out). With respect to these mice, the subcutaneous administration of colistin was performed over four days (30 mg/kg/day), after that, proximal tubular cells were analyzed and immunohistochemical staining was performed.
With the same method as in Reference Example 2, colistin was administered to renal-specific mosaic-type megalin knockout mice, after that, the proximal tubular cells were analyzed, and the expression of KIM-1 (Kidney Injury Molecule 1), which is an injury marker of proximal tubular cells, and the expression of megalin were confirmed using a fluorescent double staining method.

[7] = 10 μg on 6 mm filter paper disc, MHA, 20 hours at 37° C.
[8] = colistin 30 mg/kg/day subcutaneous over four days

T1 sequence (P98158 26-4660): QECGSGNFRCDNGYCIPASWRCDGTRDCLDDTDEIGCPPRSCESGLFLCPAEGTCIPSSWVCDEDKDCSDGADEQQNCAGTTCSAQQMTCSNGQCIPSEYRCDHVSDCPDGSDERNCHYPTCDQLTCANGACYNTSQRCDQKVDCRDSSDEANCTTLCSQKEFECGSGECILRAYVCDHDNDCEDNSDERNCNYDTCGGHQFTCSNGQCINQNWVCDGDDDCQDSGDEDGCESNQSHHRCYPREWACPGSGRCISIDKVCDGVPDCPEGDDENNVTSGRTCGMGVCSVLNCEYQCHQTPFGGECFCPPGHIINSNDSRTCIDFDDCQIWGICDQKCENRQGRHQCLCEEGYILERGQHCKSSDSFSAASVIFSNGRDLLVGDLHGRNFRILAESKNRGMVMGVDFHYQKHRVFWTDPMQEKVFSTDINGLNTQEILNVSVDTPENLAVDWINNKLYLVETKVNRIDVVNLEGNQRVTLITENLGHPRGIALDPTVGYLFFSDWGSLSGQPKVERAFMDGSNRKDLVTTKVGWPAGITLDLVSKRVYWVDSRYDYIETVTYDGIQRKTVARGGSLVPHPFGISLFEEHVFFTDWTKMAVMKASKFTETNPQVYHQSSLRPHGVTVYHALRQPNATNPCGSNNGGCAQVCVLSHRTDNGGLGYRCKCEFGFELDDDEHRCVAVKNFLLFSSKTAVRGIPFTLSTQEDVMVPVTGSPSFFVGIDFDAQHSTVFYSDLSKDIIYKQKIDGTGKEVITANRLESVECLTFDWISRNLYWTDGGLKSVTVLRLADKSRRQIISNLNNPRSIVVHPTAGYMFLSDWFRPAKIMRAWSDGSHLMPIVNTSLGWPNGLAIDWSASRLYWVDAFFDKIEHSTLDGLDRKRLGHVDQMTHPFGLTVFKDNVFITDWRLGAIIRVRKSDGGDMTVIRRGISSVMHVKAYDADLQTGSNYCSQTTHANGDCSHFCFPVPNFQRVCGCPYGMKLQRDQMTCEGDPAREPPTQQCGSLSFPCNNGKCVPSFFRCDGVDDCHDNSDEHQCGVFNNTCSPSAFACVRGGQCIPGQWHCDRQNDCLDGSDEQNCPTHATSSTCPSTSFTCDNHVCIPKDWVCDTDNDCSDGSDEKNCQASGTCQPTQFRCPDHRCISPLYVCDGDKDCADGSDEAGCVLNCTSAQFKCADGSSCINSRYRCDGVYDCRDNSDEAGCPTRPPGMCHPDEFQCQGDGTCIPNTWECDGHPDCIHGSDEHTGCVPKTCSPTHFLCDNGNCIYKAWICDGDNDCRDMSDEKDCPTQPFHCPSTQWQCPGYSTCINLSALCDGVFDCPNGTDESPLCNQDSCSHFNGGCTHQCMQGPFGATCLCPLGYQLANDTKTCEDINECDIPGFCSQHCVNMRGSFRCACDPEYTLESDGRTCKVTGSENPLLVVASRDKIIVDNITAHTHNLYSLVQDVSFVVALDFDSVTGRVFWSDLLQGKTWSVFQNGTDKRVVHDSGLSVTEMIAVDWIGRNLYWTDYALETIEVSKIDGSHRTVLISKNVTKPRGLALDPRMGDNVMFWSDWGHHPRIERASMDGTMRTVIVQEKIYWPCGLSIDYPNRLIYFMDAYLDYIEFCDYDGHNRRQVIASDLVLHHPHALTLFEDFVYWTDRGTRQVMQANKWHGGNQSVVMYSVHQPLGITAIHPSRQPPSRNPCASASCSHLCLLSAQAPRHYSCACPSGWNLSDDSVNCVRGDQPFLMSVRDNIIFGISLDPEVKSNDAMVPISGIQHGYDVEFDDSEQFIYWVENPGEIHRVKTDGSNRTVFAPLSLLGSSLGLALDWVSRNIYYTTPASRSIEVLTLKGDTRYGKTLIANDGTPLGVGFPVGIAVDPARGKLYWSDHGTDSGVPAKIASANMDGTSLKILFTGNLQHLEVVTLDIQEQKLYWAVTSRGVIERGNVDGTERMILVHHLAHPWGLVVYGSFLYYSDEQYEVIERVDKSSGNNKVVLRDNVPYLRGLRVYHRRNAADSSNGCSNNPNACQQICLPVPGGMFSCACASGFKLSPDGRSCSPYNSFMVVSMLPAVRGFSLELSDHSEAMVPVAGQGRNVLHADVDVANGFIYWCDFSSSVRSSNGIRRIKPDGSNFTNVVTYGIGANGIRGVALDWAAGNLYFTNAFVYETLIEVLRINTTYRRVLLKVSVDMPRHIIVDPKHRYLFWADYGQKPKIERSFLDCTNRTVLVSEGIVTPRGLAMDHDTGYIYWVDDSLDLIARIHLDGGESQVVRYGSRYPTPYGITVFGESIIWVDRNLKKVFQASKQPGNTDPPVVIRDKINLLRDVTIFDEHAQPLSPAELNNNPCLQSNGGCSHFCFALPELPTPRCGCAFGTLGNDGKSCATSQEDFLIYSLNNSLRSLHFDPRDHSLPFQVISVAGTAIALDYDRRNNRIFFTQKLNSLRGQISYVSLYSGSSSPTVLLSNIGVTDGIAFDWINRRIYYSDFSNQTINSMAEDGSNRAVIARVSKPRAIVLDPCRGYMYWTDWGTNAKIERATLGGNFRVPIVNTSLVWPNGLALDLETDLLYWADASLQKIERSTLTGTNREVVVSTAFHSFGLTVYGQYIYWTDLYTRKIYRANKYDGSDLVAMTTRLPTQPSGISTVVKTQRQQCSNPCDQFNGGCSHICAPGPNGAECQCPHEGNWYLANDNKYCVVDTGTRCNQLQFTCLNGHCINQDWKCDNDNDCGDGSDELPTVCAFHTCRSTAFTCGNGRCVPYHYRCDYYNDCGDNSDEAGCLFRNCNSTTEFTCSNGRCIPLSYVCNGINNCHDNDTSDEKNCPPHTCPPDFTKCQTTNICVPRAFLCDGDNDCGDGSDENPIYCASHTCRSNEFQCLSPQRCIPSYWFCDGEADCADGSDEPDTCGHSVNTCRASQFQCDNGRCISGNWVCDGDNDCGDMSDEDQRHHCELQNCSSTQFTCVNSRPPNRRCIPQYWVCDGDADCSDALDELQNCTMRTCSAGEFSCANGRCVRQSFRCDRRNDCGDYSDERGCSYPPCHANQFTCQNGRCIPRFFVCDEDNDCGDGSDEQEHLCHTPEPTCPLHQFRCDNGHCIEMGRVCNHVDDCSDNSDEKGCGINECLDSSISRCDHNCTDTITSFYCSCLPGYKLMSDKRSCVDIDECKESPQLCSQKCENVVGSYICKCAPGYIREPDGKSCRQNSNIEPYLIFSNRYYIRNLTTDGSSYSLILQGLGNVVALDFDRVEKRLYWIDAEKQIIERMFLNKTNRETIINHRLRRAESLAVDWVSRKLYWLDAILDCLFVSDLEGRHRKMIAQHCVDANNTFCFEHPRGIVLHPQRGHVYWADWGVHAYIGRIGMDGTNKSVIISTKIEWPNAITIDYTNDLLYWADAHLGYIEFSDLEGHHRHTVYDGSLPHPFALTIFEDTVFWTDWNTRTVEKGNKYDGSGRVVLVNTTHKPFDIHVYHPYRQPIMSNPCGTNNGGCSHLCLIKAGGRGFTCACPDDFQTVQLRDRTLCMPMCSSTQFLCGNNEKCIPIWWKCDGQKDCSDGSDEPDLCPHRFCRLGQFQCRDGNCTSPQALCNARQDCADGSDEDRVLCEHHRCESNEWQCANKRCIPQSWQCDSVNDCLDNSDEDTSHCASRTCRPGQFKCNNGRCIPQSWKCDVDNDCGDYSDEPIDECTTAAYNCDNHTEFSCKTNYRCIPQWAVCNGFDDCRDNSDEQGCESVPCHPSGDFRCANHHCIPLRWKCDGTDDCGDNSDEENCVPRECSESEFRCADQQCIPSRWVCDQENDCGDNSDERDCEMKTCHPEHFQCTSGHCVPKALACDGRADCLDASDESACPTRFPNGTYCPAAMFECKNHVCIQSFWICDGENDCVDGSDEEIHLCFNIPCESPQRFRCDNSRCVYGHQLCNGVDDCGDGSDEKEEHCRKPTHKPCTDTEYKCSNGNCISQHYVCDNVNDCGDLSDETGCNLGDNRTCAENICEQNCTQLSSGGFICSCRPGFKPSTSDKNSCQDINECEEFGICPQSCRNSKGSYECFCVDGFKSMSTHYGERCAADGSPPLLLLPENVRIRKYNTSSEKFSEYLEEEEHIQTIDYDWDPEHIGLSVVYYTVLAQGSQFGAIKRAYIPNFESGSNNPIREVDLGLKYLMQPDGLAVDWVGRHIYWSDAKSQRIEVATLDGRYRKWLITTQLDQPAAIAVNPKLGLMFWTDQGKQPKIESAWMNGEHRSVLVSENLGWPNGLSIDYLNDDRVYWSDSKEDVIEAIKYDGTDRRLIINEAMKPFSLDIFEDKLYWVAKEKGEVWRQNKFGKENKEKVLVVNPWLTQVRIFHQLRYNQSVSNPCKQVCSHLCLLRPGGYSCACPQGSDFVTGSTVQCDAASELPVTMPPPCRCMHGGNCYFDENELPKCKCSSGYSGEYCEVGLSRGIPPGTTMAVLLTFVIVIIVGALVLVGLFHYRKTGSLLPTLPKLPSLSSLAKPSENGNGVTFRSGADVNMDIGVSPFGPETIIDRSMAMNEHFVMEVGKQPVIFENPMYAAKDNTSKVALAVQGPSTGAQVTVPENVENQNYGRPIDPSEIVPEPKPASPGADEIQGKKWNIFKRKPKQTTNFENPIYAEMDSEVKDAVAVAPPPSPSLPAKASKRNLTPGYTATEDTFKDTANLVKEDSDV

Q: For `CC1(C)C[C@@H]1C(=O)N/C(=C\CCCCSC[C@H](N)C(=O)O)C(=O)O` [cilastatin, (Z)-7-[[(R)-2-amino-2-carboxyethyl]thio]-2-[[[(S)-2,2-dimethylcyclopropyl]carbonyl]amino]-2-heptenoic acid], which “inhibition of binding of tacrolimus to megalin protein” value (megalin [1]; cilastatin 2000 μg before 160 μg tacrolimus) is on record?
A: The value was “inhibited by cilastatin”.

Q: And the “inhibition of binding of gentamicin to megalin protein” value (megalin [1]; cilastatin 4000 μg before 4000 μg gentamicin)?
A: Its value is “inhibited by cilastatin”.

Q: What about the “inhibition of binding of vancomycin to megalin protein” value (megalin [1]; cilastatin 5000 μg before 1000 μg vancomycin) of the same compound?
A: Its value is “inhibited by cilastatin”.

Q: What about the “inhibition of binding of cisplatin to megalin protein” value (megalin [1]; cilastatin 10000 μg before 800 μg cisplatin) of the same compound?
A: Its value is “inhibited by cilastatin”.

Q: And the “inhibition of binding of colistin to megalin protein” value (megalin [1]; cilastatin 800, 5000 or 10000 μg injected before 240 μg colistin)?
A: The value was “inhibited depending on the concentration of the cilastatin”.

Q: What about the “renal tubular cell damage caused by colistin, histologically and biochemically” value ([2]; cilastatin 100 mg/kg/day combined with colistin 30 mg/kg/day) of the same compound?
A: The value was “remarkably improved”.

Q: What about the “blocking circle / anti-microbial activity” value [3, 7] of the same compound?
A: The value was “a blocking circle was not formed and anti-microbial activity was not exhibited; also recorded: anti-microbial activity could not be seen”.

Q: What about the “influence on the anti-microbial activity of colistin” value ([3]; colistin and cilastatin on the same disc) of the same compound?
A: Its value is “does not affect the anti-microbial activity of colistin”.

Q: What about the colistin-induced renal impairment ([4]; co-administration of cilastatin 100 mg/kg with colistin, rats) of the same compound?
A: The colistin-induced renal impairment was “colistin-induced renal impairment was reduced”.

Q: What about the “nephrotoxicity of cisplatin on co-administration with cilastatin” value [5] of the same compound?
A: The value was “the nephrotoxicity was improved”.

Q: For `N.N.[Cl][Pt][Cl]` [cisplatin], which “binding to megalin (frequency decrease after injection)” value (megalin [6]) is on record?
A: The value was “binding to megalin was confirmed”.

Q: Which “binding to megalin (frequency decrease after injection)” value (megalin [6]) does the source give for `C=CC[C@@H]1/C=C(\C)C[C@H](C)C[C@H](OC)[C@H]2O[C@@](O)(C(=O)C(=O)N3CCCC[C@H]3C(=O)O[C@H](/C(C)=C/[C@@H]3CC[C@@H](O)[C@H](OC)C3)[C@H](C)[C@@H](O)CC1=O)[C@H](C)C[C@@H]2OC` [tacrolimus] here?
A: The value was “binding to megalin was confirmed”.

Q: Which “binding to megalin (frequency decrease after injection)” value (megalin [6]) does the source give for `C[C@H](Cn1cnc2c(N)ncnc21)OCP(=O)(O)O` [tenofovir] here?
A: The value was “not possible to find the binding”.

Q: With `CN[C@H](CC(C)C)C(=O)N[C@H]1C(=O)N[C@@H](CC(N)=O)C(=O)N[C@H]2C(=O)N[C@H]3C(=O)N[C@H](C(=O)N[C@H](C(=O)O)c4cc(O)cc(O)c4-c4cc3ccc4O)[C@H](O)c3ccc(c(Cl)c3)Oc3cc2cc(c3O[C@@H]2O[C@H](CO)[C@@H](O)[C@H](O)[C@H]2O[C@H]2C[C@](C)(N)[C@H](O)[C@H](C)O2)Oc2ccc(cc2Cl)[C@H]1O` [vancomycin] as the compound, how does the “binding to megalin (frequency decrease after injection)” value (megalin [6]) read?
A: Its value is “binding to megalin was confirmed”.

Q: What does the source list for colistin?
A: binding to megalin (frequency decrease after injection) (megalin [6]): binding to megalin was confirmed; dilatation and cast formation of the tubules (PAS staining) [2, 8]: dilatation and cast formation of the tubules was observed; expression of KIM-1 in kidney tissue (Western blot) [2, 8]: increased expression of KIM-1 was observed; blocking circle / anti-microbial activity [3, 7]: a growth inhibition circle was formed; blocking circle diameter [3, 7]: 13.5 mm; urinary NAG/CRE values relative to saline/saline group ([4]; saline/colistin group, fifth day, colistin total 20.5 mg/kg over 5 days into jugular vein): ≥ 4 times; KIM-1 expression in proximal tubular cells (proximal tubular cells; colistin 30 mg/kg/day subcutaneous over four days, fluorescent double staining with megalin): KIM-1 was also expressed in the proximal tubular cells in which megalin, which remained without being knocked out, was expressed; vacuoles in cytoplasm of proximal tubular cells expressing megalin versus megalin knocked out cells (proximal tubular cells; colistin 30 mg/kg/day subcutaneous over four days, immunohistochemical staining): numerous vacuoles (arrows) were observed in the cytoplasm; dependence of proximal renal tubular cell damage on megalin expression (proximal tubular cells; mosaic-type megalin knockout mice): largely depended on the expression of megalin

Q: Which “binding to megalin (frequency decrease after injection)” value (megalin [6]) does the source give for gentamicin here?
A: The value was “binding to megalin was confirmed”.
